This passage reports growth results from ChEMBL document CHEMBL2440076, “New triarylpyrazoles as broad-spectrum anticancer agents: design, synthesis, and biological evaluation” (Eur J Med Chem, 2013).

What all share (format): functional
For assay [1], the system named is K562. The assay is described as follows: Growth inhibition of human K562 cells assessed as cell growth at 10 uM after 48 hrs by sulforhodamine B assay. Particulars: K562, 48 h, read-out: Activity. (In general: Sulforhodamine B stains cellular protein and so reports cell mass.)
The subject of assay [2] is M14. The assay is described as follows: Growth inhibition of human M14 cells assessed as cell growth at 10 uM after 48 hrs by sulforhodamine B assay. Particulars: M14, 48 h, read-out: Activity.
In assay [3] the test system is DU-145. The assay is described as follows: Growth inhibition of human DU145 cells assessed as cell growth at 10 uM after 48 hrs by sulforhodamine B assay. Particulars: DU-145, 48 h, read-out: Activity.
Assay [4] concerns MDA-MB-435. The assay is described as follows: Growth inhibition of human MDA-MB-435 cells assessed as cell growth at 10 uM after 48 hrs by sulforhodamine B assay. Particulars: MDA-MB-435, 48 h, read-out: Activity.
In assay [5] the test system is UACC-62. The assay is described as follows: Growth inhibition of human UACC62 cells assessed as cell growth at 10 uM after 48 hrs by sulforhodamine B assay. Particulars: UACC-62, 48 h, read-out: Activity.
Assay [6] deals with SK-OV-3. The assay is described as follows: Growth inhibition of human SKOV3 cells assessed as cell growth at 10 uM after 48 hrs by sulforhodamine B assay. Particulars: SK-OV-3, 48 h, read-out: Activity.
The subject of assay [7] is OVCAR-8. The assay is described as follows: Growth inhibition of human OVCAR8 cells assessed as cell growth at 10 uM after 48 hrs by sulforhodamine B assay. Particulars: OVCAR-8, 48 h, read-out: Activity.
Assay [8] deals with SNB-19. The assay is described as follows: Growth inhibition of human SNB19 cells assessed as cell growth at 10 uM after 48 hrs by sulforhodamine B assay. Particulars: SNB-19, 48 h, read-out: Activity.
In assay [9] the test system is MDA-MB-231. The assay is described as follows: Growth inhibition of human MDA-MB-231 cells assessed as cell growth at 10 uM after 48 hrs by sulforhodamine B assay. Particulars: MDA-MB-231, 48 h, read-out: Activity.
For assay [10], the system named is 786-0. The assay is described as follows: Growth inhibition of human 786-0 cells assessed as cell growth at 10 uM after 48 hrs by sulforhodamine B assay. Particulars: 786-0, 48 h, read-out: Activity.
Assay [11] deals with ACHN. The assay is described as follows: Growth inhibition of human ACHN cells assessed as cell growth at 10 uM after 48 hrs by sulforhodamine B assay. Particulars: read-out: Activity.
Assay [12] concerns UO-31. The assay is described as follows: Growth inhibition of human UO31 cells assessed as cell growth at 10 uM after 48 hrs by sulforhodamine B assay. Particulars: UO-31, 48 h, read-out: Activity.
A short description of assay [13]: Growth inhibition of human Hs 578T cells assessed as cell growth at 10 uM after 48 hrs by sulforhodamine B assay. Particulars: read-out: Activity.
In assay [14] the test system is T47D. The assay is described as follows: Growth inhibition of human T47D cells assessed as cell growth at 10 uM after 48 hrs by sulforhodamine B assay. Particulars: read-out: Activity.
Assay [15] deals with A498. The assay is described as follows: Growth inhibition of human A498 cells assessed as cell growth at 10 uM after 48 hrs by sulforhodamine B assay. Particulars: A498, 48 h, read-out: Activity.
The subject of assay [16] is NCI-H322M. The assay is described as follows: Growth inhibition of human NCI-H322M cells assessed as cell growth at 10 uM after 48 hrs by sulforhodamine B assay. Particulars: read-out: Activity.
The test system of assay [17] is OVCAR-4. The assay is described as follows: Growth inhibition of human OVCAR4 cells assessed as cell growth at 10 uM after 48 hrs by sulforhodamine B assay. Particulars: OVCAR-4, 48 h, read-out: Activity.

Regarding `COc1cc(-c2nn(-c3cccc(NC(=O)c4ccc(Br)c(C)c4)c3)cc2-c2ccncc2)ccc1Cl`, the growth at 10 µM was 77.3% in [1]; 74.7% in assay [2]; 102% in assay [3]; 34.7% in assay [4]; 79.9% in assay [5]; 90.8% in assay [6]. Moreover, the growth at 10 µM was 77.3% in assay [7]; 83.6% in assay [8]; 67% in assay [9]; 85.9% in assay [10]; 70.2% in [11]; 53.8% in [12]. Further, the growth at 10 µM in assay [13] was 74.9%; in [14], 70.3%; in [15], 68%; in assay [16] it was 91.7%; in assay [17] it was 86.2%.
As to `Cc1cc(C(=O)Nc2cccc(-n3cc(-c4ccncc4)c(-c4ccc(Cl)c(O)c4)n3)c2)ccc1Br`, the growth at 10 µM in assay [1] came to 91.4%; in [2], 89.5%; in [3] it was 103%; in assay [4], 93.4%; in [5], 105%; in assay [6] it was 100%. Moreover, the growth at 10 µM was 95.1% in assay [7]; 115% in assay [8]; 70% in [9]; 106% in assay [10]; 91.8% in assay [11]; 74.7% in assay [12]. In addition, the growth at 10 µM in assay [13] came out at 108%; in assay [14], 87.7%; in assay [15], 102%; in assay [16], 107%; in [17], 108%.
As to `O=C(Nc1cccc(-n2cc(-c3ccncc3)c(-c3ccc(Cl)c(O)c3)n2)c1)c1ccc(Cl)c(C(F)(F)F)c1`, the growth at 10 µM in assay [1] worked out at 105%; in assay [2] it was 82.5%; in assay [3], 95%; in assay [4], 97.8%; in assay [5], 100%; in [6], 102%. Moreover, the growth at 10 µM in assay [7] was determined as 96.8%; in assay [8], 119%; in assay [9], 73.5%; in assay [10], 108%; in assay [11], 86.6%; in assay [12] it was 81.2%. In addition, the growth at 10 µM in assay [13] was determined as 91.9%; in assay [14], 100%; in assay [15], 105%; in assay [16] it was 108%; in assay [17], 111%.
Regarding `COc1cc(-c2nn(-c3cccc(NC(=O)Nc4ccccc4)c3)cc2-c2ccncc2)ccc1Cl`, the growth at 10 µM is 45.4% in [1]; 85.7% in [2]; 101% in assay [3]; 22.6% in assay [4]; 86.5% in assay [5]; 97.1% in [6]. Also, the growth at 10 µM turned out to be 77.9% in assay [7]; 89.5% in assay [8]; 88% in assay [9]; 93.1% in assay [10]; 78.2% in assay [11]; 56.5% in assay [12]. Further, the growth at 10 µM amounted to 82.7% in assay [13]; 75.6% in assay [14]; 79.7% in assay [15]; 95.5% in assay [16]; 90.5% in assay [17].
Take `O=C(Nc1cccc(-n2cc(-c3ccncc3)c(-c3ccc(Cl)c(O)c3)n2)c1)c1ccccc1`: the growth at 10 µM turned out to be 60.7% in assay [1]; 54.9% in assay [2]; 56.9% in assay [3]; 56.1% in [4]; 68.3% in [5]; 80.1% in [6]. Moreover, the growth at 10 µM in assay [7] worked out at 50.9%; in assay [8], 99.7%; in [9], 63.2%; in assay [10], 76.1%; in assay [11], 53.2%; in assay [12] it was 83.1%. The growth at 10 µM in [13] was 48.4%; in [14], 73.9%; in [15], 72.3%; in [16], 89.2%; in assay [17], 40.7%.
